Several values for one entry are separate records, joined by “and”; a condition that tells them apart may be missing. Equal values may be shown once. Entries after “also recorded” stand apart in the source; their conditions may differ. Read-outs that look alike come from different tables or passages of the source.
Key:
[1] = tested on: lymphocytes isolated from SJL-DQ8 mice immunized with GAD65; experiment: Ex vivo T-cell activation to GAD65 peptide, lymphocytes of GAD65-immunized SJL-DQ8 mice; format: cell-based, mouse; details: all peptides at 20 μg/ml; 48 hours
Protocol: The mouse model used in this experiment was SJL-DQ8 mice. When immunized with different type 1 diabetes associated peptides, they developed strong T-cell responses to these peptides. In the ex vivo model, lymphocytes were taken from the spleen of these mice after immunization with an Insulin or GAD65 peptide. They were then stimulated with the peptide used for immunizations and the tested D-peptide was added to see if it blocked T-cell stimulation as measured by IL-2 and interferon γ (IFNγ) production (FIGS. 18 and 19).
The cells were treated with medium or GAD65 (with or without D-peptides), all peptides at 20 μg/ml. Supernatants from stimulated lymphocytes were collected 48 hours after stimulation and stored at −80° C. until the Luminex assay was performed. The Milliplex mouse cytokines/chemokines magnetic panel (EMD Millipore Corporation, Billerica, MA) and a Luminex 200 with xPONENT software (Luminex, Austin, Texas) were used to assay the cytokines following the manufacturer's instructions.

[2] = biological target: T1, recombinant HLA-DQ8 protein (Homo sapiens, UniProt P01909+P01920); experiment: DELFIA immunoassay: inhibition of biotinylated InsB:9-23 binding to recombinant HLA-DQ8
T1 construct: contained the extracellular portion of the DQA1*0301 α chain fused to the coiled-coil region of the basic leucine zipper domain of Fos; contained the extracellular portion of the DQB1*0302 β chain fused to the coiled-coil region of the basic leucine zipper domain of JunB; Fos leucine zipper (coiled-coil region) (C); TEV protease site (internal); His6; JunB leucine zipper (coiled-coil region) (C); FLAG; host or cells: baculovirus system
Description: HLA-DQ8 protein was produced using the baculovirus system. Two constructs were designed for both the α and the β chains of HLA-DQ8. The β chain construct contained the extracellular portion of the DQB1*0302 β chain fused to the coiled-coil region of the basic leucine zipper domain of JunB, and the α chain construct contained the extracellular portion of the DQA1*0301 α chain fused to the coiled-coil region of the basic leucine zipper domain of Fos. […] A tobacco etch virus protease cutting site was introduced in each chain to allow removal of the dimerization motif. The JunB and Fos dimerization motifs were added in order to allow the α and β chains to dimerize and form the final HLA-DQ8 protein (FIG. 12A). These constructs were used to produce the HLA-DQ8 protein in a baculovirus system using the Life Technologies Baculovirus protein production custom services (Carlsbad, CA).
D-peptides were produced by Fisher Scientific (Hanover Park, IL) in dry form and dissolved in PBS. All D-peptides were screened at a concentration of 10 μM for their ability to bind to the HLA-DQ8 pocket and block it from binding the InsB:9-23 peptide using a unique immunoassay (23). […] After washing 4 times, DELFIA Europium-labeled streptavidin (PerkinElmer) diluted in DELFIA assay buffer (PerkinElmer) was added for 30 minutes and shaken at slow speed at room temperature. Since the InsB:9-23 peptide was biotinylated the complex HLA-DQ8-InsB:9-23 peptide could be detected using the Europium-labeled streptavidin. After washing for 6 times, DELFIA Enhancement Solution was added for 1 hour or until the optimal signal was reached. Time-resolved fluorescence was measured using the BMG reader (BMG Labtech, Cary, NC). The experiment was performed in triplicate. As a negative control biotinylated InsB:9-23 peptide that was not pre-incubated with HLA-DQ8 was added to the nickel coated plates.
Immunoassay was performed as described above.

[3] = tested on: PBMCs isolated from DQ8 positive T1D patients; experiment: CFSE T-cell proliferation in PBMCs from DQ8 positive recent-onset T1D patients; format: cell-based, human; details: all peptides at 50 μg/ml
Description: Subjects with a diagnosis of T1D within the previous 2 years were recruited from the Pediatric Endocrine clinic at Children Hospital at Montefiore and from the adult Endocrine clinics at Montefiore and Mount Sinai Hospitals (New York). Peripheral blood mononuclear cells (PBMCs) were isolated from heparinized blood using Ficoll-Paque (GE Healthcare); freshly isolated PBMCs were used for T-cell activation studies and for genotyping. DNA purified from the blood of the patients was typed for HLA-DQ as previously described (32). PBMCs isolated from DQ8 positive patients were seeded in 96 well plates with 200 μl medium (RPMI, 10% FBS). […] The stimulated PBMCs were assessed for cytokine production and T-cell proliferation as described above for mouse splenocytes. DQ8 typed patients with long standing T1D (>10 years) were used as negative controls in the experiments (no T-cell responses to islet peptides).

FIG. 23A [4] = experiment: FIG. 23A
Protocol: (§1) Table printed on a drawing sheet, FIG. 23A
(§2) Data from a dose of 10 mg/kg and a single discrete subcutaneous dose of 10 mg/kg are shown. FIG. 23B is a graph showing mean RI-CT whole blood concentrations in male CD-1 mice following a single IV bolus dose of 10 mg/kg and a single SC dose of 10 mg/kg. […] This is a long half-life that will make it feasible to use RI-CT in a clinical setting with a once daily dose.
First reader's note: SC arm; the last four rows (n, Mean, SD, CV%) are summary statistics over the animals, and the meaning of ** is not printed on the sheet.

[5] = biological target: T2, HLA-DQ8 expressed on BSM cells (Homo sapiens, UniProt P01909+P01920, F237L); experiment: Flow cytometric analysis of InsB:9-23 peptide binding to BSM cells; format: cell-based; details: 10 μM peptide; flow cytometry
T2 construct: BSM cells that express HLA-DQ8 on their surface; host or cells: BSM cells (B-cell line homozygous for HLA-DQ8)
T2 sequence (P01920 33-261 A45G/Y58L/E77G/D89A/H199R/T217I, other chains not shown): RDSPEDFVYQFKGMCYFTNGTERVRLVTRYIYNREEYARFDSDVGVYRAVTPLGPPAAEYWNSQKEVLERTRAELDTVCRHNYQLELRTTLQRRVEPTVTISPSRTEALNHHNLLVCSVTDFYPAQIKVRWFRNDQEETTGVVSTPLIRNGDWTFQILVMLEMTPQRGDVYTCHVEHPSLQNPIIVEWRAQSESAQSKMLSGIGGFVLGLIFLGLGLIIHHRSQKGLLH
Protocol: N-terminal biotinylated peptide InsB:9-23 (or gliadin) were used to test for binding to BSM cells that express HLA-DQ8 on their surface. APC-streptavidin (BD Biosciences, Franklin Lakes, NJ) were used to detect the biotinylated peptides. […] After 24 hours incubation, cells were stained with PE-mouse anti-human HLA-DQ8 (BD Biosciences) and APC-streptavidin to detect the percent binding of the peptide to BSM cells with or without D-peptides. Percent binding was analyzed by flow cytometry.

FIG. 23A [6] = experiment: FIG. 23A; remark: listed apart in the source
Protocol: as §1, §2
First reader's note: IV arm; the last four rows (n, Mean, SD, CV%) are summary statistics over the animals, and the urine values are one merged cell for Mouse 1-4.

SMILES: CC(C)C[C@@H](NC(=O)[C@@H](Cc1ccc(O)cc1)NC(=O)[C@@H](CC(C)C)NC(=O)[C@H](NC(=O)[C@@H](CS)NC(=O)CNC(=O)[C@@H](CCC(=O)O)NC(=O)[C@@H](CCCNC(=N)N)NC(=O)CNC(=O)CN)C(C)C)C(=O)N[C@H](C)C(=O)N[C@H](CCC(=O)O)C(=O)N[C@@H](C(=O)NCC(=O)NCC(=O)O)C(C)C [RI-CT]
- blocking T cell activation ex vivo to GAD65 (IL-2, IFNγ production) [1]: some activity
- inhibition of InsB:9-23 binding to HLA-DQ8 (in words) ([2]; D-peptides screened at 10 μM, recombinant HLA-DQ8): significant inhibition
- dose dependence of the inhibition of InsB:9-23 binding to HLADQ8 ([2]; serially diluted to 0.5 μM, FIG. 3D): dose-dependent
- T-cell proliferation induced by InsB:9-23 (CFSE assay), PBMCs of DQ8 positive T1D patients [3]: significantly suppressed; also recorded: significantly decreased
- AUClast (FIG. 23A [4]): 3830 ng·h/mL
- MRTinf (FIG. 23A [4]): 4.50 h
- inhibition of the binding of InsB:9-23 to DQ8 expressed on BSM cells (in words) [5]: inhibits the binding
- AUC0-24 (FIG. 23A [6]): 5340 ng·h/mL
- AUClast (FIG. 23A [6]): 4350 ng·h/mL and 6260 ng·h/mL and 5520 ng·h/mL
- C0 (FIG. 23A [6]): 15400 ng/mL
- MRTinf (FIG. 23A [6]): 4.72 h
- Urine | CLrenal (FIG. 23A [6]): 2.6 mL/min/kg
- Urine | Recovery (%) (FIG. 23A [6]): 8.70%

— patent US12552854B2, “Peptides that block presentation of antigenic islet peptides by HLA-DQ8 and methods for treating type-1 diabetes” (Icahn School of Medicine at Mount Sinai, priority 2019, dated 2026)
